Reference: patent US20110038952A1, “GAMBOGIC ACID GLYCOSIDE DERIVATIVES AND ANALOGS, THEIR PREPARATION METHODS AND APPLICATIONS” (priority 2007, published 2011)

Columns and labels:
[1] = test system: mice sarcoma S180; experiment: Growth inhibition of S180 sarcoma in mice; assay type: in vivo
Source text: (§1) Test samples: example compounds 18, 24, 25, 26 and 27
(§2) Test animals: Kunming kinds of healthy mice (19-21 g), 10 mice (5 male and 5 female)/group, from Beijing Institute of Military Medical Sciences Animal Center.
(§3) Tumor strains: mice sarcoma S180 for ascites passaged from Beijing Academy of Military Medical Institute of Pharmacology.
(§4) Xenografts cultured S180 tumor cells were implanted subcutaneously into the flank region of mice and tumors were allowed to grow to the desired average size of 100 mg. The mice were randomized into control and treatment groups with 10 mice per group. The control group was injected with the vehicle used to dissolve the drug. Other groups received the test compounds (example compound 18, 24, 25, 26 and 27) and positive group, cyclophosphamide (CTX) and 5-fluorouracil (5-FU) at the dose and schedule as indicated in Table VI. Injections were I.V. via the tail vein.

[2] = Body weight of mice in the S180 sarcoma study
Source text: as §1, §2, §3, §4

[3] = test system: human lung cancer cell line NCI-H460; experiment: In vitro anti-cancer cell experiment (MTT), NCI-H460; assay type: cell-based; conditions: NCI-H460, P<0.05
Description: (§5) a. Cell lines: Human pancreatic cancer cell line Panc-1, human colorectal cancer cell line HT29 and human lung cancer cell line NCI-H460; the medium: s DMEM (Gibco BRL), containing 10% fetal calf serum (Gibco BRL) and 2 mM L-glutamine (Gibco BRL).
(§6) b. Test samples: example compounds 3, 18, 25 and 27.
(§7) The samples were dissolved in dimethyl sulfoxide (DMSO, Sigma, United States) and medium was added to the final concentration of 0.5%. Cisplatin was as positive control of (CDDP, purity 96%, from Kunming Institute of Precious Metals).
(§8) c. Method: cells were digested with trypsin and dispersed into single cells in the medium containing penicillin (25 U/ml) and streptomycin (25 μg/ml). The cells were seeded in 96-well culture plates (Corning Incorporated), at 37° C., in a humidified atmosphere with 5% CO2 present for 24 hours. The culture medium was removed, […] test compounds were added, cultured for 48 hours. Culture medium was removed and […] (MTT, USA Sigma products) was added. The result was assayed by SK601-based microplate reader (Japan Seikagaku company's products), 570 nm/630 nm optical density (OD).
(§9) Calculation of cell viability: (Experimental group OD/control OD)×100%; Positive control CDDP was treated in the same way.

[4] = test system: Human pancreatic cancer cell line Panc-1; experiment: In vitro anti-cancer cell experiment (MTT), Panc-1; assay type: cell-based
Description: as §5, §6, §7, §8, §9

[5] = test system: human colorectal cancer cell line HT29; experiment: In vitro anti-cancer cell experiment (MTT), HT29; assay type: cell-based; conditions: for IC50 (50% inhibition of cell viability, MTT): HT29, P<0.05
Description: as §5, §6, §7, §8, §9

[6] = Chronic toxicity, 30 days, mice
Description: Animals were given an injection in the tail vein with approximately 100 μl volume of compound formulation or vehicle formulation. Mice body weights were measured daily along with daily observation for 30 days.
(1) The general behavior, body weight and organ weight of animal.
(2) Blood test: white blood cells (WB), red blood cells (RB), hemoglobin (Hb), alanine aminotransferase (ALT), aspartate aminotransferase (AST), alkaline phosphatase (ALP), serum uric acid (UA), blood urea (UREA) and creatinine (Cr).
(3) Pathological examination: heart, liver, spleen, lung and kidney.

[7] = S180 mice, I.V. tail vein, 25 mg/kg
[8] = S180 mice, I.V. tail vein, 1 mg/kg
[9] = S180 mice, I.V. tail vein, 2 mg/kg
[10] = S180 mice, I.V. tail vein, 4 mg/kg
[11] = S180 mice, 24 one dose, 25 three doses, 26 three doses, 27 one dose
[12] = S180 mice, I.V. tail vein, 15 mg/kg
[13] = S180 mice, I.V. tail vein, 5 mg/kg
[14] = S180 mice, I.V. tail vein, 10 mg/kg
[15] = S180 mice, I.V. tail vein, 8 mg/kg
[16] = S180 mice, I.V. tail vein, 12 mg/kg
[17] = mice, tail vein, 2, 4 and 8 mg/kg, 30 days, vs control group

O=P1(N(CCCl)CCCl)NCCCO1 (centres unmarked) [CTX, cyclophosphamide, reference compound]
Inhibition rate (%) [1, 7]: 48.6% | Tumor weight [1, 7]: 1.24 ± 0.50 g | body weight/g Without tumor [2, 7]: 23.94 ± 2.60 g | body weight/g After ad. ([2]; S180 mice, I.V. tail vein, 25 mg/kg, after administration): 25.44 ± 2.92 g | body weight/g Before ad. ([2]; S180 mice, I.V. tail vein, 25 mg/kg, before administration): 22.64 ± 1.28 g

CC(C)=CCCC1(C)C=Cc2c(O)c3c(c(CC=C(C)C)c2O1)OC12C(=C[C@H]4CC1C(C)(C)OC2(C/C=C(/C)C(=O)OCCO)C4=O)C3=O (some centres unmarked) [Example 3, Ethylene Glycol Gambogate]
IC50 (the compound concentration producing 50% inhibition of colony formation) on NCI-H460 [3]: 6.18 µg/mL | IC50 (the compound concentration producing 50% inhibition of colony formation) on Panc-1 ([4]; Panc-1, P<0.05): 23.4 µg/mL

CC(C)=CCCC1(C)C=Cc2c(c(CC=C(C)C)c3c(c2OC(=O)c2ccc(OC4O[C@H](CO)[C@@H](O)[C@@H](O)[C@H]4O)cc2)C(=O)C2=C[C@H]4CC5C(C)(C)OC(C/C=C(/C)C(=O)N(C)Cc6cccc7ccccc67)(C4=O)C25O3)O1 (stereo partly drawn) [Example 27, 6-(4-O-D-Allosylbenzoyl) gambogyl (N-methyl-1-naphthalene) methylamine]
IC50 (50% inhibition of cell viability, MTT) [5]: 1.19 µg/mL | anti-tumor efficacy (in vivo), statistical significance ([1]; mouse, in vivo): statistically significant | Inhibition rate (%) ([1]; mouse, in vivo, iv, 25 mg/kg): 32.5% | Tumor weight ([1]; mouse, in vivo, iv, 25 mg/kg): 1.63 ± 0.47 g | Inhibition rate (%) ([1]; mouse, in vivo, iv, 30 mg/kg): 37.0% | Tumor weight ([1]; mouse, in vivo, iv, 30 mg/kg): 1.52 ± 0.30 g | body weight/g After ad. ([2]; mouse, in vivo, iv, 25 mg/kg): 20.83 ± 1.36 g | body weight/g Before ad. ([2]; mouse, in vivo, iv, 25 mg/kg): 20.90 ± 1.06 g | body weight/g Without tumor ([2]; mouse, in vivo, iv, 25 mg/kg): 19.00 ± 1.39 g | body weight/g After ad. ([2]; mouse, in vivo, iv, 30 mg/kg): 20.22 ± 2.11 g | body weight/g Before ad. ([2]; mouse, in vivo, iv, 30 mg/kg): 19.07 ± 1.40 g | body weight/g Without tumor ([2]; mouse, in vivo, iv, 30 mg/kg): 18.67 ± 2.08 g

9,10-Dihydro-10-(N-methyl-1-naphthoylamino) gambogyl (N-methyl)-1-naphthoylamine [Example 25]
IC50 (50% inhibition of cell viability, MTT) [5]: 3.75 µg/mL | Inhibition rate (%) [1, 8]: 44.6% | Tumor weight [1, 8]: 1.34 ± 0.47 g | Inhibition rate (%) [1, 9]: 58.3% | Tumor weight [1, 9]: 1.00 ± 0.34 g | Inhibition rate (%) [1, 10]: 65.2% | Tumor weight [1, 10]: 0.84 ± 0.35 g | anti-tumor efficacy (in vivo), statistical significance [1, 11]: statistically significant | body weight/g After ad. ([2]; mouse, in vivo, iv, 1 mg/kg): 24.75 ± 2.56 g | body weight/g Before ad. ([2]; mouse, in vivo, iv, 1 mg/kg): 22.59 ± 1.36 g | body weight/g Without tumor ([2]; mouse, in vivo, iv, 1 mg/kg): 23.27 ± 2.16 g | body weight/g After ad. ([2]; mouse, in vivo, iv, 2 mg/kg): 22.75 ± 3.51 g | body weight/g Before ad. ([2]; mouse, in vivo, iv, 2 mg/kg): 22.36 ± 1.30 g | body weight/g Without tumor ([2]; mouse, in vivo, iv, 2 mg/kg): 21.69 ± 3.13 g | body weight/g After ad. ([2]; mouse, in vivo, iv, 4 mg/kg): 21.47 ± 3.69 g | body weight/g Before ad. ([2]; mouse, in vivo, iv, 4 mg/kg): 22.38 ± 1.80 g | body weight/g Without tumor ([2]; mouse, in vivo, iv, 4 mg/kg): 20.77 ± 3.37 g

O=c1[nH]cc(F)c(=O)[nH]1 [Example 5-FU, 5-fluorouracil, reference compound]
IC50 ([5]; Homo sapiens, HT-29, HT29, 48 hours, MTT, second of two HT29 columns): 92.3 µM | IC50 ([4]; Homo sapiens, Panc-1, 48 hours, MTT): 193 µM | Inhibition rate (%) [1, 12]: 43.2% | Tumor weight [1, 12]: 1.37 ± .033 g | body weight/g After ad. ([2]; mouse, in vivo, iv, 15 mg/kg): 28.66 ± 2.89 g | body weight/g Before ad. ([2]; mouse, in vivo, iv, 15 mg/kg): 23.07 ± 1.75 g | body weight/g Without tumor ([2]; mouse, in vivo, iv, 15 mg/kg): 27.19 ± 2.88 g

CCCCCN(CCCCC)C(=O)/C(C)=C\CC12OC(C)(C)C3C[C@H](C=C4C(=O)c5c(O)c6c(c(CC=C(C)C)c5OC431)OC(C)(CCC=C(C)C)C=C6)C2=O (some centres unmarked) [Example 18, Gambogyl Dipentylamine]
IC50 (the compound concentration producing 50% inhibition of colony formation) on NCI-H460 [3]: 4.73 µg/mL | Inhibition rate (%) [1, 13]: 40.3% | Tumor weight [1, 13]: 1.44 ± 0.39 g | Inhibition rate (%) [1, 14]: 52.5% | Tumor weight [1, 14]: 1.14 ± 0.42 g | body weight/g After ad. ([2]; mouse, in vivo, iv, 5 mg/kg): 27.91 ± 4.08 g | body weight/g Before ad. ([2]; mouse, in vivo, iv, 5 mg/kg): 22.80 ± 1.73 g | body weight/g Without tumor ([2]; mouse, in vivo, iv, 5 mg/kg): 26.49 ± 4.62 g | body weight/g After ad. ([2]; mouse, in vivo, iv, 10 mg/kg): 26.08 ± 2.8 g | body weight/g Before ad. ([2]; mouse, in vivo, iv, 10 mg/kg): 27.32 ± 2.2 g | body weight/g Without tumor ([2]; mouse, in vivo, iv, 10 mg/kg): 25.06 ± 2.09 g

COC(=O)/C(C)=C\CC12OC(C)(C)C3C[C@H](C=C4C(=O)c5c(OC(=O)c6ccc(OC7O[C@H](CO)[C@@H](O)[C@@H](O)[C@H]7O)cc6)c6c(c(CC=C(C)C)c5OC431)OC(C)(CCC=C(C)C)C=C6)C2=O (stereo partly drawn) [Example 26, Methyl-6-(4-O-D-allosyl)benzoyl gambogate]
Inhibition rate (%) [1, 10]: 53.7% | Tumor weight [1, 10]: 1.12 ± 0.40 g | Inhibition rate (%) [1, 15]: 60.2% | Tumor weight [1, 15]: 0.96 ± 0.32 g | Inhibition rate (%) [1, 16]: 69.3% | Tumor weight [1, 16]: 0.74 ± 0.11 g | anti-tumor efficacy (in vivo), statistical significance [1, 11]: statistically significant | body weight/g After ad. ([2]; mouse, in vivo, iv, 4 mg/kg): 23.71 ± 3.85 g | body weight/g Before ad. ([2]; mouse, in vivo, iv, 4 mg/kg): 25.89 ± 2.62 g | body weight/g Without tumor ([2]; mouse, in vivo, iv, 4 mg/kg): 22.54 ± 3.42 g | body weight/g After ad. ([2]; mouse, in vivo, iv, 8 mg/kg): 21.42 ± 0.88 g | body weight/g Before ad. ([2]; mouse, in vivo, iv, 8 mg/kg): 24.41 ± 2.28 g | body weight/g Without tumor ([2]; mouse, in vivo, iv, 8 mg/kg): 20.56 ± 0.54 g | body weight/g After ad. ([2]; mouse, in vivo, iv, 12 mg/kg): 26.71 ± 5.56 g | body weight/g Before ad. ([2]; mouse, in vivo, iv, 12 mg/kg): 25.58 ± 2.48 g | body weight/g Without tumor ([2]; mouse, in vivo, iv, 12 mg/kg): 26.07 ± 5.40 g | alanine aminotransferase (ALT) ([6]; high dose group, recovery to normal level): slightly incretion | Pathological examination: heart [6, 17]: no abnormal of heart tissue | Pathological examination: liver [6, 17]: no abnormal tissue in rat liver slices | Pathological examination: lung [6, 17]: no abnormal tissue in rat lung slices | Pathological examination: renal [6, 17]: no abnormal tissue in rat renal slices | Pathological examination: spleen [6, 17]: no abnormal tissue in rat spleen slices | toxic pathological changes of the heart, liver, spleen, lung and kidney ([6]; three dose mice groups, continuous administration for 30 days): no toxic pathological changes

COC(=O)/C(C)=C\CC12OC(C)(C)C3C[C@H](C=C4C(=O)c5c(OC6O[C@H](CO)[C@@H](O)[C@@H](O)[C@H]6O)c6c(c(CC=C(C)C)c5OC431)OC(C)(CCC=C(C)C)C=C6)C2=O (stereo partly drawn) [Example 24, Methyl-6-O-D-allosyl gambogate]
Inhibition rate (%) [1, 14]: 61.0% | Tumor weight [1, 14]: 0.94 ± 0.26 g | anti-tumor efficacy (in vivo), statistical significance [1, 11]: statistically significant | body weight/g After ad. ([2]; mouse, in vivo, iv, 10 mg/kg): 19.77 ± 1.88 g | body weight/g Before ad. ([2]; mouse, in vivo, iv, 10 mg/kg): 21.67 ± 1.26 g | body weight/g Without tumor ([2]; mouse, in vivo, iv, 10 mg/kg): 18.89 ± 1.45 g
